Some results are limits rather than exact numbers.

Chain of human α7 nAChR (P36544 23-502 limits assumed): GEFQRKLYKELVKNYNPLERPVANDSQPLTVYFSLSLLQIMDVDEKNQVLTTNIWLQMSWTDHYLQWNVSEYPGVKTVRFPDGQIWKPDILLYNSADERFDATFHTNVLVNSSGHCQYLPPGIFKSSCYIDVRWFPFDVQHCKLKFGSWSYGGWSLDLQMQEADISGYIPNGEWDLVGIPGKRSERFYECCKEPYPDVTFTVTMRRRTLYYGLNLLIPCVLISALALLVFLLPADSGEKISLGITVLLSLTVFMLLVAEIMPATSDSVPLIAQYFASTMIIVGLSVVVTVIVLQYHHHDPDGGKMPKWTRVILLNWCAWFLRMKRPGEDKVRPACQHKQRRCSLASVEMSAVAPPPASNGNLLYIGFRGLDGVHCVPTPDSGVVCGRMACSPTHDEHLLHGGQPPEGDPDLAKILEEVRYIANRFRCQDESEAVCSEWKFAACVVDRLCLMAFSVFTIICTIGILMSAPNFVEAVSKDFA

The first test concerns the target human α7 nAChR (Homo sapiens (Human), UniProt P36544). In words: cell-based.
Conditions: not given
Molecule `O=C(NC1CN2CCC1CC2)c1ccc(=O)n(-c2nccs2)c1` (centres unmarked) [Example 1, N-(1-azabicyclo[2.2.2]octan-3-yl)-6-oxo-1-(2-thiazolyl)-3-pyridinecarboxamide] showed a half-maximal effective concentration (EC50) of 0.1 to 0.5 µM.
The same measure, in the same setting: under `O=C(N[C@H]1CN2CCC1CC2)c1ccc(=O)n(-c2nccs2)c1` [Example 2, N-[(3R)-1-azabicyclo[2.2.2]octan-3-yl)-6-oxo-1-(2-thiazolyl)-3-pyridinecarboxamide] stands 0.1 to 0.5 µM; under `O=C(N[C@@H]1CN2CCC1CC2)c1ccc(=O)n(-c2nccs2)c1` [Example 3, N-[(3S)-1-azabicyclo[2.2.2]octan-3-yl)-6-oxo-1-(2-thiazolyl)-3-pyridinecarboxamide], 0.1 to 0.5 µM.
Same read-out and setting: the value for `O=C(NC1CN2CCC1CC2)c1ccc(=O)n(-c2ccc(-c3ccccc3)cn2)c1` (centres unmarked) [Example 7, N-(1-azabicyclo[2.2.2]octan-3-yl)-6-oxo-1-(5-phenyl-2-pyridine-1-yl)-3-pyridinecarboxamide] was 0.1 to 0.5 µM.
As for `Cc1cnc(-n2cc(C(=O)NC3CN4CCC3CC4)ccc2=O)s1` (centres unmarked) [Example 10, N-(1-azabicyclo[2.2.2]octan-3-yl)-1-(5-methyl-2-thiazolyl)-6-oxo-3-pyridinecarboxamide], the half-maximal effective concentration (EC50) was 0.1 to 0.5 µM.
`Cc1cnc(-n2cc(C(=O)N[C@@H]3CN4CCC3CC4)ccc2=O)s1` [Example 12, N-[(3S)-1-azabicyclo[2.2.2]octan-3-yl]-1-(5-methyl-2-thiazolyl)-6-oxo-3-pyridinecarboxamide] registered an EC50 of 0.5 to 1 µM.
Still for that read-out and setting: under `CCc1cnc(-n2cc(C(=O)NC3CN4CCC3CC4)ccc2=O)s1` (centres unmarked) [Example 13, N-(1-azabicyclo[2.2.2]octan-3-yl)-1-(5-ethyl-2-thiazolyl)-6-oxo-3-pyridinecarboxamide] stands 0.1 to 0.5 µM; under `CCc1cnc(-n2cc(C(=O)N[C@@H]3CN4CCC3CC4)ccc2=O)s1` [Example 15, N-[(3S)-1-azabicyclo[2.2.2]octan-3-yl]-1-(5-ethyl-2-thiazolyl)-6-oxo-3-pyridinecarboxamide], 0.1 to 0.5 µM; under `CCCc1cnc(-n2cc(C(=O)NC3CN4CCC3CC4)ccc2=O)s1` (centres unmarked) [Example 16, N-(1-azabicyclo[2.2.2]octan-3-yl)-6-oxo-1-(5-propyl-2-thiazolyl)-3-pyridinecarboxamide], 0.1 to 0.5 µM.
The same measure, in the same setting: the value for `CC(C)c1cnc(-n2cc(C(=O)NC3CN4CCC3CC4)ccc2=O)s1` (centres unmarked) [Example 17, N-(1-azabicyclo[2.2.2]octan-3-yl)-6-oxo-1-(5-propan-2-yl-2-thiazolyl)-3-pyridinecarboxamide] was 0.1 to 0.5 µM.
`CC(C)c1cnc(-n2cc(C(=O)N[C@@H]3CN4CCC3CC4)ccc2=O)s1` [Example 19, N-[(3S)-1-azabicyclo[2.2.2]octan-3-yl)-6-oxo-1-(5-propan-2-yl-2-thiazolyl)-3-pyridinecarboxamide]: the EC50 fell in the range of 0.1 to 0.5 µM.
Still for that read-out and setting: the value for `CC(C)(C)c1cnc(-n2cc(C(=O)NC3CN4CCC3CC4)ccc2=O)s1` (centres unmarked) [Example 20, N-(1-azabicyclo[2.2.2]octan-3-yl)-1-(5-tert-butyl-2-thiazolyl)-6-oxo-3-pyridinecarboxamide] was 0.1 to 0.5 µM.
The same measure, in the same setting: the value for `CC(C)(C)c1cnc(-n2cc(C(=O)N[C@H]3CN4CCC3CC4)ccc2=O)s1` [Example 21, N-[(3R)-1-azabicyclo[2.2.2]octan-3-yl]-1-[5-tert-butyl-2-thiazolyl]-6-oxo-3-pyridinecarboxamide] was 0.1 to 0.5 µM; that for `CC(C)(C)c1cnc(-n2cc(C(=O)N[C@@H]3CN4CCC3CC4)ccc2=O)s1` [Example 22, N-[(3S)-1-azabicyclo[2.2.2]octan-3-yl]-1-[5-tert-butyl-2-thiazolyl]-6-oxo-3-pyridinecarboxamide] was 0.5 to 1 µM.
The same measure, in the same setting: the value for `O=C(NC1CN2CCC1CC2)c1ccc(=O)n(-c2ncc(C3CCCC3)s2)c1` (centres unmarked) [Example 23, N-(1-azabicyclo[2.2.2]octan-3-yl)-1-(5-cyclopentyl-2-thiazolyl)-6-oxo-3-pyridinecarboxamide] was 0.1 to 0.5 µM; that for `O=C(NC1CN2CCC1CC2)c1ccc(=O)n(-c2ncc(C3CCCCC3)s2)c1` (centres unmarked) [Example 24, N-(1-azabicyclo[2.2.2]octan-3-yl)-1-(5-cyclohexyl-2-thiazolyl)-6-oxo-3-pyridinecarboxamide] was 0.1 to 0.5 µM; that for `O=C(NC1CN2CCC1CC2)c1ccc(=O)n(-c2ncc(-c3ccccc3)s2)c1` (centres unmarked) [Example 25, N-(1-azabicyclo[2.2.2]octan-3-yl)-1-(5-phenyl-2-thiazolyl)-6-oxo-3-pyridinecarboxamide] was 0.5 to 1 µM.
Molecule `O=C(N[C@H]1CN2CCC1CC2)c1ccc(=O)n(-c2ncc(Cl)s2)c1` [Example 27, N-[(3R)-1-azabicyclo[2.2.2]octan-3-yl]-1-(5-chloro-2-thiazolyl)-6-oxo-3-pyridinecarboxamide] showed an EC50 of 0.1 to 0.5 µM.
`O=C(NC1CN2CCC1CC2)c1ccc(=O)n(-c2ncc(Cc3ccccc3)s2)c1` (centres unmarked) [Example 29] gave an EC50 of 0.1 to 0.5 µM.
Same read-out and setting: under `O=C(NC1CN2CCC1CC2)c1ccc(=O)n(-c2nc3ccccc3s2)c1` (centres unmarked) [Example 33, N-(1-azabicyclo[2.2.2]octan-3-yl)-1-(1,3-benzothiazole-2-yl)-6-oxo-3-pyridinecarboxamide] stands 0.1 to 0.5 µM.

Still in this test, the particulars now being: HEK293T/17 cells transfected with human α7 nAChR and RIC3; with PNU-120596; fluorescence relative to 1 μM epibatidine; read-out: EC50 of human α7 nAChR.
On to `O=C(NC1CN2CCC1CC2)c1ccc(=O)n(-c2ccc(Cl)cn2)c1` (centres unmarked) [Example 6, N-(1-azabicyclo[2.2.2]octan-3-yl)-1-(5-chloro-2-pyridinyl)-6-oxo-3-pyridinecarboxamide], for which the concentration for a half-maximal effect (EC50) was > 1 µM.
Same read-out and setting: under `O=C(NC1CN2CCC1CC2)c1ccc(=O)n(-c2cc(-c3ccccc3)no2)c1` (centres unmarked) [Example 9, N-(1-azabicyclo[2.2.2]octan-3-yl)-6-oxo-1-[3-phenyl-5-isoxazolyl)-3-pyridinecarboxamide] stands > 1 µM; under `Cc1cnc(-n2cc(C(=O)N[C@H]3CN4CCC3CC4)ccc2=O)s1` [Example 11, N-[(3R)-1-azabicyclo[2.2.2]octan-3-yl]-1-(5-methyl-2-thiazolyl)-6-oxo-3-pyridinecarboxamide], < 0.1 µM; under `CCc1cnc(-n2cc(C(=O)N[C@H]3CN4CCC3CC4)ccc2=O)s1` [Example 14, N-[(3R)-1-azabicyclo[2.2.2]octan-3-yl]-1-(5-ethyl-2-thiazolyl)-6-oxo-3-pyridinecarboxamide], < 0.1 µM.
Same read-out and setting: the value for `CC(C)c1cnc(-n2cc(C(=O)N[C@H]3CN4CCC3CC4)ccc2=O)s1` [Example 18, N-[(3R)-1-azabicyclo[2.2.2]octan-3-yl)-6-oxo-1-(5-propan-2-yl-2-thiazolyl)-3-pyridinecarboxamide] was < 0.1 µM.
Still for that read-out and setting: the value for `O=C(NC1CN2CCC1CC2)c1ccc(=O)n(-c2ncc(Cl)s2)c1` (centres unmarked) [Example 26, N-(1-azabicyclo[2.2.2]octan-3-yl)-1-(5-chloro-2-thiazolyl)-6-oxo-3-pyridinecarboxamide] was < 0.1 µM; that for `O=C(N[C@@H]1CN2CCC1CC2)c1ccc(=O)n(-c2ncc(Cl)s2)c1` [Example 28, N-[(3S)-1-azabicyclo[2.2.2]octan-3-yl]-1-(5-chloro-2-thiazolyl)-6-oxo-3-pyridinecarboxamide] was > 1 µM; that for `Cc1csc(-n2cc(C(=O)NC3CN4CCC3CC4)ccc2=O)n1` (centres unmarked) [Example 30, N-(1-azabicyclo[2.2.2]octan-3-yl)-1-(4-methyl-2-thiazolyl)-6-oxo-3-pyridinecarboxamide] was > 1 µM.
As to `Cc1nnc(-n2cc(C(=O)NC3CN4CCC3CC4)ccc2=O)s1` (centres unmarked) [Example 42, N-(1-azabicyclo[2.2.2]octan-3-yl)-1-[5-methyl-1,3,4-thiadiazole-2-yl)-6-oxo-3-pyridinecarboxamide], the EC50 is > 1 µM.

What is called EC50 is the midpoint of the concentration-response curve.
